Measurements published in ChEMBL document CHEMBL1201862, “PubChem BioAssay data set” (2004).
Values joined by “and” are separate entries in the source; they are usually repeats but may differ in a detail not shown here. Equal values may be shown once. Active and inactive are the calls of the source.

Key:
[1] = non-specific cell cytotoxicity, dose response, cytotoxicity control for PAX8 inhibitor project, plate reader, dry powder samples (AID 743021); type: functional, cell-based
Vero = Vero cell cytotoxicity, cytotoxicity control for flavivirus capping enzyme inhibitors (AID 588742); type: functional; details: Chlorocebus sabaeus
[2] = Fluorescence-based cell-based high throughput dose response assay for inhibitors of the interaction of nucleotide-binding oligomerization domain containing 2 (NOD2) and the receptor-interacting serine-threonine kinase 2 (RIPK2).; type: functional; details: Homo sapiens
Paired box protein Pax-8 = Paired box protein Pax-8 (Homo sapiens, UniProt Q06710); assay: inhibitors of PAX8-driven TPO luciferase reporter, dose response, RMG-I cells, cherry-pick (AID 687027); type: functional, cell-based;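 note: luciferase reporter driven by Pax8 target thyroperoxidase promoter measured by SteadyGlo luminescence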
Sequence of Paired box protein Pax-8 (Q06710 whole entry): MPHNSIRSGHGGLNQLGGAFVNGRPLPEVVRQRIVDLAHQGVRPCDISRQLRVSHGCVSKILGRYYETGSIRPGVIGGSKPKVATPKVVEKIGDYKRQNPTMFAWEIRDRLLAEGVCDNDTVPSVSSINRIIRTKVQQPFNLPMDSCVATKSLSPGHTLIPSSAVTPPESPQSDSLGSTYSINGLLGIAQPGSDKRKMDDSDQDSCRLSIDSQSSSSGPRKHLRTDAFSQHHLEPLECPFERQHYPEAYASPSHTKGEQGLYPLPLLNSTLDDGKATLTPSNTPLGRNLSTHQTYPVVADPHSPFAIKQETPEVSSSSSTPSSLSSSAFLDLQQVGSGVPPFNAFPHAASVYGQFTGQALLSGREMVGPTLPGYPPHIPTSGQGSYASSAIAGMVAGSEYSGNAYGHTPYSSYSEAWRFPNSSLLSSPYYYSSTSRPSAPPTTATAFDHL

[3] = THP-1 cell cytotoxicity, dose response, cytotoxicity control for Vif-APOBEC3G degradation inhibitor project, THP-1 cells (AID 1117359); type: functional; details: Human immunodeficiency virus 1, THP-1
[4] = molecular target: T1, Mitochondrial peptide methionine sulfoxide reductase (Bos taurus, UniProt P54149); assay: Absorbance-based biochemical high throughput dose response assay for activators of Methionine sulfoxide reductase A (MsrA).; type: functional
T1 sequence (P54149 whole entry): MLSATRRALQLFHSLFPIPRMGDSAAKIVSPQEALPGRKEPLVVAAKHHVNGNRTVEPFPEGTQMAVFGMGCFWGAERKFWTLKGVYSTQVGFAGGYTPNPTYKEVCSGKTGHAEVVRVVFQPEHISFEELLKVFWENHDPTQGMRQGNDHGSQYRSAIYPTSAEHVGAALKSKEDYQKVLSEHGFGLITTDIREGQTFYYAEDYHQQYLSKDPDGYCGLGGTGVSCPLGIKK

Beta-galactosidase [5] = molecular target: T2, Beta-galactosidase (Escherichia coli, UniProt Q8VNN2); assay: beta-galactosidase enzyme inhibitors and activators, dose response, artefact control for CCR6 antagonist project, biochemical, E. coli enzyme, set 3 (AID 504712); type: functional
T2 sequence (Q8VNN2 whole entry): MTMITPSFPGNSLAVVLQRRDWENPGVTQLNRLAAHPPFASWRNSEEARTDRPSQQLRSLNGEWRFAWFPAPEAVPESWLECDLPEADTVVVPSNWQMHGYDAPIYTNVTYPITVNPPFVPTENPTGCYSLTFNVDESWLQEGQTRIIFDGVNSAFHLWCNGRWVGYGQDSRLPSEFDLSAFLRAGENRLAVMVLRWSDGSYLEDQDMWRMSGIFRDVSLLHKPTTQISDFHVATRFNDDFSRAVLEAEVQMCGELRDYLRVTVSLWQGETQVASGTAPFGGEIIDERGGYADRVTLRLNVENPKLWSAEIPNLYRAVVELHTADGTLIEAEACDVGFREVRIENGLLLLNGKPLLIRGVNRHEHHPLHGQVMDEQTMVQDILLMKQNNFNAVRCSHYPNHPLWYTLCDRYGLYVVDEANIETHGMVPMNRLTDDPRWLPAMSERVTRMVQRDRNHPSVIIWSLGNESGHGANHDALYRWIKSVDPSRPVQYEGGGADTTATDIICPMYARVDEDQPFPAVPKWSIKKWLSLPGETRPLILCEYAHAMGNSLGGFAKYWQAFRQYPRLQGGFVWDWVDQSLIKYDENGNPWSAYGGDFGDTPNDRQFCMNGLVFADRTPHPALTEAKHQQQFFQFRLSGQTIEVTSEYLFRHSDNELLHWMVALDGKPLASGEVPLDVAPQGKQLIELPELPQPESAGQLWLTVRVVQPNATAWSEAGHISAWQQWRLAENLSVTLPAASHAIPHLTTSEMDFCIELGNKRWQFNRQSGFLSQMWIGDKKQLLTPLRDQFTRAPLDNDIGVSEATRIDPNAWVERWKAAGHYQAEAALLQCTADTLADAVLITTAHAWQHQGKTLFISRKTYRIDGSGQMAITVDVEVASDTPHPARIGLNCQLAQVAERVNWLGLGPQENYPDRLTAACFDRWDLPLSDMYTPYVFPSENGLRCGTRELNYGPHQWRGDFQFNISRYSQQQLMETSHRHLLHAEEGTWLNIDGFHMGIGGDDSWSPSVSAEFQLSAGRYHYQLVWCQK

[6] = molecular target: T3, Tyrosyl-DNA phosphodiesterase 2 (Homo sapiens, UniProt O95551); assay: human TDP2 enzyme inhibitors, dose response, biochemical, epi absorbance, IC50 (AID 743297)
T3 sequence (O95551 whole entry): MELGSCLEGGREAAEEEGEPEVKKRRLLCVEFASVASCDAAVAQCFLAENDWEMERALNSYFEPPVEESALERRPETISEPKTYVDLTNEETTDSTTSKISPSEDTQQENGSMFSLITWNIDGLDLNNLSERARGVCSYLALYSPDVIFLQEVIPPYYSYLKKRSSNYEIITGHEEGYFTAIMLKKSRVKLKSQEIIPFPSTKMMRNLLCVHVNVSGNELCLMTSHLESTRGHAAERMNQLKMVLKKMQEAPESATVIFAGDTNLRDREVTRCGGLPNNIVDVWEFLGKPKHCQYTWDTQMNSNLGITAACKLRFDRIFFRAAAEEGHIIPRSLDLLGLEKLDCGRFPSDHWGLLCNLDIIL

Hexokinase HKDC1 = molecular target: T4, Hexokinase HKDC1 (Homo sapiens, UniProt Q2TB90); assay: HKDC1 hexokinase inhibitors, dose response, biochemical, W721R variant (AID 504729); type: functional
T4 sequence (Q2TB90 whole entry): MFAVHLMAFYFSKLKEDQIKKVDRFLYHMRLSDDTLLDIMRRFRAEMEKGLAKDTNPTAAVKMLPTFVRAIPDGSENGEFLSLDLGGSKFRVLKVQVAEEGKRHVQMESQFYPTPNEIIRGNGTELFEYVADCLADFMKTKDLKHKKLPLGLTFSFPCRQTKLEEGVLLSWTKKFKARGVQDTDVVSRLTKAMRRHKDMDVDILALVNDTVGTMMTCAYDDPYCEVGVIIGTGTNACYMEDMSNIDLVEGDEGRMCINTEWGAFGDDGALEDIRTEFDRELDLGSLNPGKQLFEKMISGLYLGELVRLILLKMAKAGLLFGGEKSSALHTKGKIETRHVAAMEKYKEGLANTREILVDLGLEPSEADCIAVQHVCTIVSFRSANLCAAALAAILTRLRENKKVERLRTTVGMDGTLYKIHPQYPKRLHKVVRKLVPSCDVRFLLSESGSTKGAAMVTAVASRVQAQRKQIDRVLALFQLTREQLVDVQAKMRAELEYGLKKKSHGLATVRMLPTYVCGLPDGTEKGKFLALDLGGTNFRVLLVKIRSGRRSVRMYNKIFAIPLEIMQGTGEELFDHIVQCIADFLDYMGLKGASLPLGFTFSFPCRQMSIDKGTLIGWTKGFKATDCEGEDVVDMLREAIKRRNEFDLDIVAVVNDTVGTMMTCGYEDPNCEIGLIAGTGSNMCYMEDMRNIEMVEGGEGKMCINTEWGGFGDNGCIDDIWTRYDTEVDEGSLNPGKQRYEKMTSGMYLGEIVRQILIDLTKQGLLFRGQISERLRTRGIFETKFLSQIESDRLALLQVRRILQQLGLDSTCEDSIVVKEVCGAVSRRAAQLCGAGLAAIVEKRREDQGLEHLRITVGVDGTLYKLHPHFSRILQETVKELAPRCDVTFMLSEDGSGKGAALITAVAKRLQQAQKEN

[7] = molecular target: T5, C-C chemokine receptor type 6 (Homo sapiens, UniProt P51684); assay: CCR6 receptor antagonists, dose response, cell-based, luminescent beta-arrestin readout (AID 504728); type: functional
T5 sequence (P51684 whole entry): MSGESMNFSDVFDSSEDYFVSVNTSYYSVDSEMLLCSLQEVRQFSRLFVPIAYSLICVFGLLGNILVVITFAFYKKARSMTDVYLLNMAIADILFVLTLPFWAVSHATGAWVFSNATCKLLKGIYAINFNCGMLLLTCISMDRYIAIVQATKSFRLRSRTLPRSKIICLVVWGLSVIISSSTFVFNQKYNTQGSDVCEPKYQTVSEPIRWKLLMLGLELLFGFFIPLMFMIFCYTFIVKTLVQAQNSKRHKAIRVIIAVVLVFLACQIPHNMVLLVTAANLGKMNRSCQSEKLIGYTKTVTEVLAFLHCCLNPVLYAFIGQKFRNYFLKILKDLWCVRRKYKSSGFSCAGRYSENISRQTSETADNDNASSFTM

Genome polyprotein = Genome polyprotein (dengue virus type 2, UniProt P29990); assay: Dengue-2 NS5 methyltransferase inhibitors, primary screen, biochemical, confirmation dose response (AID 588689); type: functional
Sequence of Genome polyprotein (P29990 2492-3391 limits assumed): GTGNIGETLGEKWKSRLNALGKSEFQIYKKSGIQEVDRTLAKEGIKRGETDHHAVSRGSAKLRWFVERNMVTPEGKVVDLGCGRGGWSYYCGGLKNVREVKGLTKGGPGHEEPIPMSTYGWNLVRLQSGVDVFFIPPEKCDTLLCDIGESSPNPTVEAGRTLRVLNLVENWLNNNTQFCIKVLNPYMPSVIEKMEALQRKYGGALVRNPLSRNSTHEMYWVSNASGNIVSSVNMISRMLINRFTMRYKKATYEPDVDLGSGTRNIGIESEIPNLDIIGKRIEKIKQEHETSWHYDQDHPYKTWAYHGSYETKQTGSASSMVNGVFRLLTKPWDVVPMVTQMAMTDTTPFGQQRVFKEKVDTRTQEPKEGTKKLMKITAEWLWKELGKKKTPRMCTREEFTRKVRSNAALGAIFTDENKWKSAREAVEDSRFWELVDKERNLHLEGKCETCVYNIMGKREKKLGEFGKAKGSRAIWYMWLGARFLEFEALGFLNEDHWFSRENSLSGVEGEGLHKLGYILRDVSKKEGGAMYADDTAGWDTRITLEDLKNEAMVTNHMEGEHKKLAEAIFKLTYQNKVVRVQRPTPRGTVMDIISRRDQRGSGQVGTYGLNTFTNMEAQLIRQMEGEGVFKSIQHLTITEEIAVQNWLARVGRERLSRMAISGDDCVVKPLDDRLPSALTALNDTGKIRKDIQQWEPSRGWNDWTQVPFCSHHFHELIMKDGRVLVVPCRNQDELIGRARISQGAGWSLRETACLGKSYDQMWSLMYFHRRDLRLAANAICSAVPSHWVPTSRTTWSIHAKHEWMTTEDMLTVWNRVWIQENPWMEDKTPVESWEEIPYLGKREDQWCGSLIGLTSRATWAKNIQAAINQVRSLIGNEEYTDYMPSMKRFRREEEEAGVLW

[8] = molecular target: Glucose-6-phosphate 1-dehydrogenase (Homo sapiens, UniProt P11413); assay: human G6PD enzyme inhibitors, dose response, selectivity assay for P. falciparum G6PD inhibitor project, biochemical, fluorescence (AID 504792); type: functional
Sequence of Glucose-6-phosphate 1-dehydrogenase (P11413 whole entry): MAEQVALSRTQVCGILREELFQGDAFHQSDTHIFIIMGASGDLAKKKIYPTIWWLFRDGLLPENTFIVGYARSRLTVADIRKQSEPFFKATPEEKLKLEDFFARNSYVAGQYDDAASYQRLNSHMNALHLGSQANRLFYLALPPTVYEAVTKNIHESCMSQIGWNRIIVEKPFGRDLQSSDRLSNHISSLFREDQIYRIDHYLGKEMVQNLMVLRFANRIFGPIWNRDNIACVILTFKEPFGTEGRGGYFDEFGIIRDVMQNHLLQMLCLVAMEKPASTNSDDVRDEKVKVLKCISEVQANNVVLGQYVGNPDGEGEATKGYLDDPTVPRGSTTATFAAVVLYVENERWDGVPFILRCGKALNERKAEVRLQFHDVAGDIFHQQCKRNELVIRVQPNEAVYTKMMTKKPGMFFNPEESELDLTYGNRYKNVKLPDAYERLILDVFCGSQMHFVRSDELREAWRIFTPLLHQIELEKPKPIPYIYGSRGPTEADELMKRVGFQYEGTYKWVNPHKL

Beta-galactosidase [9] = molecular target: T2, Beta-galactosidase; assay: PubChem AID 485352; type: functional
[10] = molecular target: T6, Type-1 angiotensin II receptor (Homo sapiens, UniProt P30556); assay: AT1 receptor antagonists, dose response, selectivity assay for APJ receptor antagonist project, cell-based, uHTS hits (AID 463214); type: functional;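 note: antagonist potency against angiotensin II stimulated AT1 response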
T6 sequence (P30556 whole entry): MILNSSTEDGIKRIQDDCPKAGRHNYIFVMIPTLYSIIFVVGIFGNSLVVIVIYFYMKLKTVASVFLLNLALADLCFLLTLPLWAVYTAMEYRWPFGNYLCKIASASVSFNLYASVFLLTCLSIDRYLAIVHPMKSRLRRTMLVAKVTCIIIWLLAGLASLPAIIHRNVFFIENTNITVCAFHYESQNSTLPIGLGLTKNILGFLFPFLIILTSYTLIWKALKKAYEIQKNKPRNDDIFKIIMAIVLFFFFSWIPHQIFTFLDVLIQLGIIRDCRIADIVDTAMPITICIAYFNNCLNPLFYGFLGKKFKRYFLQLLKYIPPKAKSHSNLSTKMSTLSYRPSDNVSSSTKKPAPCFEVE

[11] = molecular target: ATP-dependent molecular chaperone HSP82 (Candida albicans (strain WO-1) (Yeast), UniProt C4YTQ8); assay: loss of DOC-induced GRE-beta-galactosidase reporter signal, dose response, Hsp90 inhibitor project, S. cerevisiae, luminescence (AID 2400); type: functional, cell-based;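 note: beta-galactosidase luminescence from glucocorticoid response element reporter as proxy for Hsp90 function; inhibitor potency where signal loss means Hsp90 inhibition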
[12] = C. albicans growth with fluconazole, confirmation, fluorescence, retest (AID 2467); type: functional, cell-based
Cytochrome P450 3A4 = Cytochrome P450 3A4 (Homo sapiens, UniProt P08684); details: Potency;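 note: confirmatory qHTS run detecting inhibitors and substrates of CYP3A4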
[13] = molecular target: Serine/threonine-protein phosphatase (Candida dubliniensis (strain CD36 / CBS 7987 / NCPF 3949 / NRRLY-17841) (Yeast), UniProt B9W6M3); assay: calcineurin pathway inhibitors in yeast reporter, dose response, S. cerevisiae, CDRE-lacZ, luminescence, secondary (AID 2388); type: functional, cell-based;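 note: yeast reporter cells carrying a calcineurin-responsive lacZ construct stimulated with calcium chloride; luminescent beta-galactosidase reporter signal in whole cells rather than isolated phosphatase activity; potency for inhibition where a drop in reporter signal means calcineurin blockade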
Phospholipase D2 = Phospholipase D2 (Homo sapiens, UniProt O14939); assay: PLD2 inhibitor potency in cells, dose response (AID 602147); type: functional;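 note: cellular assay in HEK293 cells overexpressing GFP-tagged PLD2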
Sequence of Phospholipase D2 (O14939 whole entry): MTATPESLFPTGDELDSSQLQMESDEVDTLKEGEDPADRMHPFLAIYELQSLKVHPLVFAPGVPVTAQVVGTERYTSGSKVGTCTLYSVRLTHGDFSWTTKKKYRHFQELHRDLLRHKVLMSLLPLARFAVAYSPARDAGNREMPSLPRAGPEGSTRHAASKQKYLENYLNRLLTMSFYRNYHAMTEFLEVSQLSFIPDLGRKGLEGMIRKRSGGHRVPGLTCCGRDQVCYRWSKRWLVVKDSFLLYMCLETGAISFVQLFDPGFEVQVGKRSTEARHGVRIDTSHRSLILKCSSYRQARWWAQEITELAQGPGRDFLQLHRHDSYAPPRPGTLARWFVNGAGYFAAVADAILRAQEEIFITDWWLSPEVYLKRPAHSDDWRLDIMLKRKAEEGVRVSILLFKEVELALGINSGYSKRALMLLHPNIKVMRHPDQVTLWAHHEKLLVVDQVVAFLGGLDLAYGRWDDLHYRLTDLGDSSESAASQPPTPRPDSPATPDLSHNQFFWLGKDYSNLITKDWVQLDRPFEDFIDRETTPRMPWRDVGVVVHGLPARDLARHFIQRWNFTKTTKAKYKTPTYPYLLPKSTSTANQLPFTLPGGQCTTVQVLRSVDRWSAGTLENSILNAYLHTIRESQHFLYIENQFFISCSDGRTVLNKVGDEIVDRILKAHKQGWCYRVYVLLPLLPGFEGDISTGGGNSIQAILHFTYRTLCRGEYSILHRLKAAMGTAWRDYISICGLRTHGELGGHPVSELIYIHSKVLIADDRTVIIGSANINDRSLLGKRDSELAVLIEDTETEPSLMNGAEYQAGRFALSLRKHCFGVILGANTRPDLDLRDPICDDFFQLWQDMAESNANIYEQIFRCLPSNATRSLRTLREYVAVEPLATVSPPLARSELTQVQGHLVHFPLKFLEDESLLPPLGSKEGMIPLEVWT

Phospholipase D1 = Phospholipase D1 (Homo sapiens, UniProt Q13393); assay: PLD1 inhibitor potency in cells, dose response (AID 602151); type: functional;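 note: cellular PLD1 assay in Calu-1 cells stimulated with PMA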
Sequence of Phospholipase D1 (Q13393 whole entry): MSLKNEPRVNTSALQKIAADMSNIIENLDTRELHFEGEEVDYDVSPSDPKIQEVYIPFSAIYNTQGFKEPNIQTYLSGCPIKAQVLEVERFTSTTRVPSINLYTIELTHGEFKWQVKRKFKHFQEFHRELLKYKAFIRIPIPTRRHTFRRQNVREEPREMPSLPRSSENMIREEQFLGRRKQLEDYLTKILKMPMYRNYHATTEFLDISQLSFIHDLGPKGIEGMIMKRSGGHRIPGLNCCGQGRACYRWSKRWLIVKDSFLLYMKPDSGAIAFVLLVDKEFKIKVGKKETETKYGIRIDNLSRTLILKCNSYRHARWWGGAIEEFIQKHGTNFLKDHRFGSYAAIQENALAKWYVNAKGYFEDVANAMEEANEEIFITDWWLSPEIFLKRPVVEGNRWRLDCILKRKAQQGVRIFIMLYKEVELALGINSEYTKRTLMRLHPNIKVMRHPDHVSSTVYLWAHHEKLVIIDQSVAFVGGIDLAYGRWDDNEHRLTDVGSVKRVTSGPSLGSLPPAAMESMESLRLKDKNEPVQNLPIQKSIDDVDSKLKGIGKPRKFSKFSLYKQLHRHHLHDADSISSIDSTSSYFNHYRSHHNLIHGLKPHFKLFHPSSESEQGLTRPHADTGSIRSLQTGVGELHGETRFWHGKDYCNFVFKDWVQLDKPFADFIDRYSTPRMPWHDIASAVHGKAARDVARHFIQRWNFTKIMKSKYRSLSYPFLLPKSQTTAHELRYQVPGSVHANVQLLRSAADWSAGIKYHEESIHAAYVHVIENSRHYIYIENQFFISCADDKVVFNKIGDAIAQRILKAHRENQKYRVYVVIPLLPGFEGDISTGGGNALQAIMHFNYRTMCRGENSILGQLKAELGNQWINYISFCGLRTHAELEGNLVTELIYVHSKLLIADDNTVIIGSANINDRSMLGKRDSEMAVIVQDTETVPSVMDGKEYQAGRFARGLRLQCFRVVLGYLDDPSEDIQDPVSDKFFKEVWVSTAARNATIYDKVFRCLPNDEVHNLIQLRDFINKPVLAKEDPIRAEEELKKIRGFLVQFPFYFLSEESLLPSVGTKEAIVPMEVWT

O=C(NC1=CC(=O)c2ccccc2C1=O)c1ccccc1
AC50 [1]: 24.2 µM (active)
CC50 (Vero): 15.2 µM (active)
IC50 [2]: 2.06 µM (active)
AC50 (Paired box protein Pax-8): 4.43 µM (active)
CC50 [3]: 2.65 µM (active)
EC50 [4]: 34.1 µM (inactive)
IC50 (Beta-galactosidase [5]): > 66.6 µM (inactive)
IC50 [6]: 11.7 µM (inactive)
IC50 (Hexokinase HKDC1): 3.09 µM (active)
IC50 [7]: > 66.6 µM (inactive)
IC50 (Genome polyprotein): 18.5 µM (active)
IC50 [8]: 35.7 µM (inactive)

CCC1CCCCN1CC(=O)c1ccc(OC(F)F)cc1 (stereo not given)
EC50 (Beta-galactosidase [9]): > 40 µM (inactive)
IC50 [10]: > 40 µM (not active)

C[C@]12CC[C@H](O)C[C@@H]1CC[C@@H]1[C@@H]2CC[C@]2(C)C(=O)CC[C@@H]12 [EPIANDROSTERONE]
EC50 [11]: 24.2 µM (active)
EC50 [12]: 877 nM (active) and 1.15 µM (active)
AC50 (Cytochrome P450 3A4): 20 µM (inconclusive)
EC50 [13]: > 180 µM (inactive)

CC(C)[C@@H](CN1CCC2(CC1)C(=O)NCN2c1ccccc1)NC(=O)c1ccc2ccccc2c1
IC50 (Phospholipase D2): 1.5 µM (active)
IC50 (Phospholipase D1): 0.14 µM (active)
